# ChEMBL document CHEMBL6127052, “Discovery of membrane-targeting amphiphilic honokiol derivatives containing an oxazolethione moiety to combat methicillin-resistant Staphylococcus aureus (MRSA) infections” (Eur J Med Chem, 2024)
# System: Staphylococcus aureus
# Experiment: Antibacterial activity against methicillin-resistant Staphylococcus aureus clinical isolate M12 by CLSI based micro-broth dilution method
# Type: functional
row,SMILES,MIC
1,C=CCc1cc(-c2ccc(OCCC[N+](C)(C)CC(=O)NCCCC)c(CC=C)c2)c2oc(=S)n(Cc3cc(Br)cc(Br)c3)c2c1.[Br-],64 µg/mL
2,C=CCc1cc(-c2ccc(OCCC[N+](C)(C)CC(=O)NCCCC)c(CC=C)c2)c2oc(=S)n(Cc3cc(F)c(F)c(F)c3)c2c1.[Br-],2 µg/mL
3,C=CCc1cc(-c2ccc(OCCC[N+](C)(C)CC(=O)NCCCC)c(CC=C)c2)c2oc(=S)n(Cc3ccc(Cl)c(Cl)c3)c2c1.[Br-],32 µg/mL
4,C=CCc1cc(-c2ccc(OCCC[N+](C)(C)CC(=O)NCCCC)c(CC=C)c2)c2oc(=S)n(Cc3ccc(F)c(F)c3)c2c1.[Br-],4 µg/mL

# System: Staphylococcus aureus
# Experiment: Antibacterial activity against methicillin-resistant Staphylococcus aureus clinical isolate M11 by CLSI based micro-broth dilution method
# Type: functional
row,SMILES,MIC
1,C=CCc1cc(-c2ccc(OCCC[N+](C)(C)CC(=O)NCCCC)c(CC=C)c2)c2oc(=S)n(Cc3cc(Br)cc(Br)c3)c2c1.[Br-],32 µg/mL
2,C=CCc1cc(-c2ccc(OCCC[N+](C)(C)CC(=O)NCCCC)c(CC=C)c2)c2oc(=S)n(Cc3cc(F)c(F)c(F)c3)c2c1.[Br-],2 µg/mL
3,C=CCc1cc(-c2ccc(OCCC[N+](C)(C)CC(=O)NCCCC)c(CC=C)c2)c2oc(=S)n(Cc3ccc(Cl)c(Cl)c3)c2c1.[Br-],32 µg/mL
4,C=CCc1cc(-c2ccc(OCCC[N+](C)(C)CC(=O)NCCCC)c(CC=C)c2)c2oc(=S)n(Cc3ccc(F)c(F)c3)c2c1.[Br-],4 µg/mL

# System: Staphylococcus aureus
# Experiment: Antibacterial activity against Staphylococcus aureus ATCC 29213 by CLSI based micro-broth dilution method
# Type: functional
row,SMILES,MIC
1,C=CCc1cc(-c2ccc(OCCC[N+](C)(C)CC(=O)NCCCC)c(CC=C)c2)c2oc(=S)n(Cc3cc(Br)cc(Br)c3)c2c1.[Br-],> 128 µg/mL
2,C=CCc1cc(-c2ccc(OCCC[N+](C)(C)CC(=O)NCCCC)c(CC=C)c2)c2oc(=S)n(Cc3cc(F)c(F)c(F)c3)c2c1.[Br-],2 µg/mL
3,C=CCc1cc(-c2ccc(OCCC[N+](C)(C)CC(=O)NCCCC)c(CC=C)c2)c2oc(=S)n(Cc3ccc(Cl)c(Cl)c3)c2c1.[Br-],64 µg/mL
4,C=CCc1cc(-c2ccc(OCCC[N+](C)(C)CC(=O)NCCCC)c(CC=C)c2)c2oc(=S)n(Cc3ccc(F)c(F)c3)c2c1.[Br-],4 µg/mL

# System: not listed separately
# Experiment: Hemolytic activity in sheep erythrocytes incubated for 1 hr by absorbance based assay
# Type: toxicity, cell-based, Ovis aries, Erythrocyte
row,SMILES,HC50 at 1 h
1,C=CCc1cc(-c2ccc(OCCC[N+](C)(C)CC(=O)NCCCC)c(CC=C)c2)c2oc(=S)n(Cc3cc(Br)cc(Br)c3)c2c1.[Br-],> 160 µg/mL
2,C=CCc1cc(-c2ccc(OCCC[N+](C)(C)CC(=O)NCCCC)c(CC=C)c2)c2oc(=S)n(Cc3cc(F)c(F)c(F)c3)c2c1.[Br-],52.8 µg/mL
3,C=CCc1cc(-c2ccc(OCCC[N+](C)(C)CC(=O)NCCCC)c(CC=C)c2)c2oc(=S)n(Cc3ccc(Cl)c(Cl)c3)c2c1.[Br-],> 160 µg/mL
4,C=CCc1cc(-c2ccc(OCCC[N+](C)(C)CC(=O)NCCCC)c(CC=C)c2)c2oc(=S)n(Cc3ccc(F)c(F)c3)c2c1.[Br-],68.4 µg/mL

# System: Staphylococcus aureus
# Experiment: Antibacterial activity against methicillin-resistant Staphylococcus aureus clinical isolate M17 by CLSI based micro-broth dilution method
# Type: functional
row,SMILES,MIC
1,C=CCc1cc(-c2ccc(OCCC[N+](C)(C)CC(=O)NCCCC)c(CC=C)c2)c2oc(=S)n(Cc3cc(Br)cc(Br)c3)c2c1.[Br-],64 µg/mL
2,C=CCc1cc(-c2ccc(OCCC[N+](C)(C)CC(=O)NCCCC)c(CC=C)c2)c2oc(=S)n(Cc3cc(F)c(F)c(F)c3)c2c1.[Br-],4 µg/mL
3,C=CCc1cc(-c2ccc(OCCC[N+](C)(C)CC(=O)NCCCC)c(CC=C)c2)c2oc(=S)n(Cc3ccc(Cl)c(Cl)c3)c2c1.[Br-],128 µg/mL
4,C=CCc1cc(-c2ccc(OCCC[N+](C)(C)CC(=O)NCCCC)c(CC=C)c2)c2oc(=S)n(Cc3ccc(F)c(F)c3)c2c1.[Br-],4 µg/mL

# System: not listed separately
# Experiment: Selectivity index, ratio of HC50 for hemolytic activity in sheep erythrocytes to MIC for antibacterial activity against Staphylococcus aureus ATCC 29213
# Type: toxicity, cell-based, RBC
row,SMILES,selectivity ratio
1,C=CCc1cc(-c2ccc(OCCC[N+](C)(C)CC(=O)NCCCC)c(CC=C)c2)c2oc(=S)n(Cc3cc(Br)cc(Br)c3)c2c1.[Br-],1.3
2,C=CCc1cc(-c2ccc(OCCC[N+](C)(C)CC(=O)NCCCC)c(CC=C)c2)c2oc(=S)n(Cc3ccc(Cl)c(Cl)c3)c2c1.[Br-],> 2.5
3,C=CCc1cc(-c2ccc(OCCC[N+](C)(C)CC(=O)NCCCC)c(CC=C)c2)c2oc(=S)n(Cc3ccc(F)c(F)c3)c2c1.[Br-],10.4

# System: Staphylococcus aureus
# Experiment: Antibacterial activity against methicillin-resistant Staphylococcus aureus clinical isolate M22 by CLSI based micro-broth dilution method
# Type: functional
row,SMILES,MIC
1,C=CCc1cc(-c2ccc(OCCC[N+](C)(C)CC(=O)NCCCC)c(CC=C)c2)c2oc(=S)n(Cc3cc(Br)cc(Br)c3)c2c1.[Br-],64 µg/mL
2,C=CCc1cc(-c2ccc(OCCC[N+](C)(C)CC(=O)NCCCC)c(CC=C)c2)c2oc(=S)n(Cc3cc(F)c(F)c(F)c3)c2c1.[Br-],4 µg/mL
3,C=CCc1cc(-c2ccc(OCCC[N+](C)(C)CC(=O)NCCCC)c(CC=C)c2)c2oc(=S)n(Cc3ccc(Cl)c(Cl)c3)c2c1.[Br-],64 µg/mL
4,C=CCc1cc(-c2ccc(OCCC[N+](C)(C)CC(=O)NCCCC)c(CC=C)c2)c2oc(=S)n(Cc3ccc(F)c(F)c3)c2c1.[Br-],4 µg/mL

# System: Staphylococcus aureus
# Experiment: Antibacterial activity against methicillin-resistant Staphylococcus aureus clinical isolate M23 by CLSI based micro-broth dilution method
# Type: functional
row,SMILES,MIC
1,C=CCc1cc(-c2ccc(OCCC[N+](C)(C)CC(=O)NCCCC)c(CC=C)c2)c2oc(=S)n(Cc3cc(Br)cc(Br)c3)c2c1.[Br-],64 µg/mL
2,C=CCc1cc(-c2ccc(OCCC[N+](C)(C)CC(=O)NCCCC)c(CC=C)c2)c2oc(=S)n(Cc3cc(F)c(F)c(F)c3)c2c1.[Br-],2 µg/mL
3,C=CCc1cc(-c2ccc(OCCC[N+](C)(C)CC(=O)NCCCC)c(CC=C)c2)c2oc(=S)n(Cc3ccc(Cl)c(Cl)c3)c2c1.[Br-],32 µg/mL
4,C=CCc1cc(-c2ccc(OCCC[N+](C)(C)CC(=O)NCCCC)c(CC=C)c2)c2oc(=S)n(Cc3ccc(F)c(F)c3)c2c1.[Br-],4 µg/mL

# System: Staphylococcus aureus
# Experiment: Antibacterial activity against methicillin-resistant Staphylococcus aureus clinical isolate M20 by CLSI based micro-broth dilution method
# Type: functional
row,SMILES,MIC
1,C=CCc1cc(-c2ccc(OCCC[N+](C)(C)CC(=O)NCCCC)c(CC=C)c2)c2oc(=S)n(Cc3cc(Br)cc(Br)c3)c2c1.[Br-],32 µg/mL
2,C=CCc1cc(-c2ccc(OCCC[N+](C)(C)CC(=O)NCCCC)c(CC=C)c2)c2oc(=S)n(Cc3cc(F)c(F)c(F)c3)c2c1.[Br-],2 µg/mL
3,C=CCc1cc(-c2ccc(OCCC[N+](C)(C)CC(=O)NCCCC)c(CC=C)c2)c2oc(=S)n(Cc3ccc(Cl)c(Cl)c3)c2c1.[Br-],32 µg/mL
4,C=CCc1cc(-c2ccc(OCCC[N+](C)(C)CC(=O)NCCCC)c(CC=C)c2)c2oc(=S)n(Cc3ccc(F)c(F)c3)c2c1.[Br-],4 µg/mL

# System: Staphylococcus aureus
# Experiment: Antibacterial activity against methicillin-resistant Staphylococcus aureus N315 by CLSI based micro-broth dilution method
# Type: functional
row,SMILES,MIC
1,C=CCc1cc(-c2ccc(OCCC[N+](C)(C)CC(=O)NCCCC)c(CC=C)c2)c2oc(=S)n(Cc3cc(Br)cc(Br)c3)c2c1.[Br-],64 µg/mL
2,C=CCc1cc(-c2ccc(OCCC[N+](C)(C)CC(=O)NCCCC)c(CC=C)c2)c2oc(=S)n(Cc3cc(F)c(F)c(F)c3)c2c1.[Br-],16 µg/mL
3,C=CCc1cc(-c2ccc(OCCC[N+](C)(C)CC(=O)NCCCC)c(CC=C)c2)c2oc(=S)n(Cc3ccc(Cl)c(Cl)c3)c2c1.[Br-],32 µg/mL
4,C=CCc1cc(-c2ccc(OCCC[N+](C)(C)CC(=O)NCCCC)c(CC=C)c2)c2oc(=S)n(Cc3ccc(F)c(F)c3)c2c1.[Br-],16 µg/mL

# System: Staphylococcus aureus
# Experiment: Antibacterial activity against methicillin-resistant Staphylococcus aureus clinical isolate M16 by CLSI based micro-broth dilution method
# Type: functional
row,SMILES,MIC
1,C=CCc1cc(-c2ccc(OCCC[N+](C)(C)CC(=O)NCCCC)c(CC=C)c2)c2oc(=S)n(Cc3cc(Br)cc(Br)c3)c2c1.[Br-],64 µg/mL
2,C=CCc1cc(-c2ccc(OCCC[N+](C)(C)CC(=O)NCCCC)c(CC=C)c2)c2oc(=S)n(Cc3cc(F)c(F)c(F)c3)c2c1.[Br-],2 µg/mL
3,C=CCc1cc(-c2ccc(OCCC[N+](C)(C)CC(=O)NCCCC)c(CC=C)c2)c2oc(=S)n(Cc3ccc(Cl)c(Cl)c3)c2c1.[Br-],32 µg/mL
4,C=CCc1cc(-c2ccc(OCCC[N+](C)(C)CC(=O)NCCCC)c(CC=C)c2)c2oc(=S)n(Cc3ccc(F)c(F)c3)c2c1.[Br-],4 µg/mL

# System: Staphylococcus aureus
# Experiment: Antibacterial activity against methicillin-resistant Staphylococcus aureus clinical isolate M13 by CLSI based micro-broth dilution method
# Type: functional
row,SMILES,MIC
1,C=CCc1cc(-c2ccc(OCCC[N+](C)(C)CC(=O)NCCCC)c(CC=C)c2)c2oc(=S)n(Cc3cc(Br)cc(Br)c3)c2c1.[Br-],128 µg/mL
2,C=CCc1cc(-c2ccc(OCCC[N+](C)(C)CC(=O)NCCCC)c(CC=C)c2)c2oc(=S)n(Cc3cc(F)c(F)c(F)c3)c2c1.[Br-],4 µg/mL
3,C=CCc1cc(-c2ccc(OCCC[N+](C)(C)CC(=O)NCCCC)c(CC=C)c2)c2oc(=S)n(Cc3ccc(Cl)c(Cl)c3)c2c1.[Br-],64 µg/mL
4,C=CCc1cc(-c2ccc(OCCC[N+](C)(C)CC(=O)NCCCC)c(CC=C)c2)c2oc(=S)n(Cc3ccc(F)c(F)c3)c2c1.[Br-],2 µg/mL

# System: Staphylococcus aureus
# Experiment: Antibacterial activity against methicillin-resistant Staphylococcus aureus clinical isolate M14 by CLSI based micro-broth dilution method
# Type: functional
row,SMILES,MIC
1,C=CCc1cc(-c2ccc(OCCC[N+](C)(C)CC(=O)NCCCC)c(CC=C)c2)c2oc(=S)n(Cc3cc(Br)cc(Br)c3)c2c1.[Br-],128 µg/mL
2,C=CCc1cc(-c2ccc(OCCC[N+](C)(C)CC(=O)NCCCC)c(CC=C)c2)c2oc(=S)n(Cc3cc(F)c(F)c(F)c3)c2c1.[Br-],2 µg/mL
3,C=CCc1cc(-c2ccc(OCCC[N+](C)(C)CC(=O)NCCCC)c(CC=C)c2)c2oc(=S)n(Cc3ccc(Cl)c(Cl)c3)c2c1.[Br-],32 µg/mL
4,C=CCc1cc(-c2ccc(OCCC[N+](C)(C)CC(=O)NCCCC)c(CC=C)c2)c2oc(=S)n(Cc3ccc(F)c(F)c3)c2c1.[Br-],2 µg/mL

# System: Escherichia coli
# Experiment: Antibacterial activity against Escherichia coli ATCC 25922 by CLSI based micro-broth dilution method
# Type: functional
row,SMILES,MIC
1,C=CCc1cc(-c2ccc(OCCC[N+](C)(C)CC(=O)NCCCC)c(CC=C)c2)c2oc(=S)n(Cc3cc(Br)cc(Br)c3)c2c1.[Br-],> 128 µg/mL
2,C=CCc1cc(-c2ccc(OCCC[N+](C)(C)CC(=O)NCCCC)c(CC=C)c2)c2oc(=S)n(Cc3cc(F)c(F)c(F)c3)c2c1.[Br-],> 128 µg/mL
3,C=CCc1cc(-c2ccc(OCCC[N+](C)(C)CC(=O)NCCCC)c(CC=C)c2)c2oc(=S)n(Cc3ccc(Cl)c(Cl)c3)c2c1.[Br-],> 128 µg/mL
4,C=CCc1cc(-c2ccc(OCCC[N+](C)(C)CC(=O)NCCCC)c(CC=C)c2)c2oc(=S)n(Cc3ccc(F)c(F)c3)c2c1.[Br-],> 128 µg/mL

# System: Staphylococcus aureus
# Experiment: Antibacterial activity against methicillin-resistant Staphylococcus aureus clinical isolate M21 by CLSI based micro-broth dilution method
# Type: functional
row,SMILES,MIC
1,C=CCc1cc(-c2ccc(OCCC[N+](C)(C)CC(=O)NCCCC)c(CC=C)c2)c2oc(=S)n(Cc3cc(Br)cc(Br)c3)c2c1.[Br-],32 µg/mL
2,C=CCc1cc(-c2ccc(OCCC[N+](C)(C)CC(=O)NCCCC)c(CC=C)c2)c2oc(=S)n(Cc3cc(F)c(F)c(F)c3)c2c1.[Br-],2 µg/mL
3,C=CCc1cc(-c2ccc(OCCC[N+](C)(C)CC(=O)NCCCC)c(CC=C)c2)c2oc(=S)n(Cc3ccc(Cl)c(Cl)c3)c2c1.[Br-],16 µg/mL
4,C=CCc1cc(-c2ccc(OCCC[N+](C)(C)CC(=O)NCCCC)c(CC=C)c2)c2oc(=S)n(Cc3ccc(F)c(F)c3)c2c1.[Br-],4 µg/mL
